According to US20240218022A1, “ANTI-VISTA MACROCYCLIC PEPTIDES AND COMPOSITIONS” (BRISTOL-MYERS SQUIBB COMPANY, priority 2022, published 2024):
pIC50: −log10 of the molar value. Like-named read-outs stand apart in the source and are kept apart here. Starred links: 1 amine or outer side, 2 acyl side, 3 side chain; linkers in the order of their positions; H or OH if unused. Positions of bridges follow the written chain, without caps; N, C: chain ends. Non-standard residues stand in square brackets, D forms with d. Residues, ends and D or L forms follow the SMILES beside them. Phe(3-Me) = Cc1cccc(C[C@H](N)C(=O)O)c1; 2Nal = N[C@@H](Cc1ccc2ccccc2c1)C(=O)O; βAsp = O=C(O)[C@H](CC(=O)[*:2])N[*:1]; Ala(cPr) = N[C@@H](CC1CC1)C(=O)O; Ahp(2) = CCCCC[C@H](N)C(=O)O; NMeNle = CCCC[C@H](NC)C(=O)O; Tle = CC(C)(C)[C@H](N)C(=O)O; NMeS = CN[C@@H](CO)C(=O)O; NHexGly = CCCCCCNCC(=O)O; Orn = NCCC[C@H](N)C(=O)O; Aun = NCCCCCCCCCCC(=O)O; AEEA = NCCOCCOCC(=O)O

Target: T1, mouse VISTA (mVISTA) (Mus musculus, UniProt Q9D659)
T1 construct: expressed in transfected cells; host or cells: Human embryonic kidney 293T cells
T1 sequence (Q9D659 33-308): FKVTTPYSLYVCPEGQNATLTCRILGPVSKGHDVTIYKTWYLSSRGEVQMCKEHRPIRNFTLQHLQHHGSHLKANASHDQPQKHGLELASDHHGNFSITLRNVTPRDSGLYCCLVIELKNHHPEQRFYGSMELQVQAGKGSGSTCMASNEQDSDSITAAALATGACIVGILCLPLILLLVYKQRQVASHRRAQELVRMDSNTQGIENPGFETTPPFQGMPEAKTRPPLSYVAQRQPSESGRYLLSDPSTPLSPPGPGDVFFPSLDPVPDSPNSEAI
Test: Cell-Based Binding High-Content Assay For mVISTA (HC CBA mVISTA)
Settings: cell-based binding high-content assay, mVISTA
Outline: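 Read-out: Alexa 647–streptavidin signal imaged on fixed, Hoechst-stained mVISTA-293T cells, with IC50 taken from a four-parameter logistic curve. Compounds competed with 2 nM biotinylated peptide for 30 min at room temperature, tested under both no-wash and wash (1 h compound, media exchange, 1 h) formats.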

[1] = read-out: HC CBA miPr ISTA IC50

**Q.** `CCCCCCN1CC(=O)N[C@@H](Cc2ccc(O)cc2)C(=O)N[C@@H](CC2CC2)C(=O)N[C@@H](CC(N)=O)C(=O)N[C@@H](CCCN)C(=O)N(C)[C@@H](CCCC)C(=O)N[C@@H](CCCCC)C(=O)N2CCC[C@H]2C(=O)N[C@@H](C(C)(C)C)C(=O)N[C@@H](CO)C(=O)N[C@H](C(=O)N[C@@H](CC(=O)NCCOCCOCC(=O)N[C@@H](CC(=O)O)C(=O)NCCOCCOCC(=O)NCCCCCCCCCCC(=O)O)C(=O)O)CSCC(=O)N[C@@H](Cc2ccccc2)C(=O)N[C@@H](Cc2ccc(O)cc2)C(=O)N[C@@H](CC(=O)O)C1=O` [compound 2062] ({CH2CO}-FYD[NHexGly]Y[Ala(cPr)]N[Orn][NMeNle][Ahp(2)]P[Tle]SC[βAsp][AEEA]D[AEEA][Aun]-OH; thioether N-14) was tested. Which pIC50 [1] did it give?
**A.** 7.31

**Q.** With `CCCCCCN1CC(=O)N[C@@H](Cc2ccc(O)cc2)C(=O)N[C@@H](CC(C)C)C(=O)N[C@@H](CC(=O)O)C(=O)N[C@@H](CCCNC(=N)N)C(=O)N(C)[C@@H](CO)C(=O)N[C@@H](CCCCC)C(=O)N2CCC[C@H]2C(=O)N[C@@H](C(C)(C)C)C(=O)N[C@@H](CC(N)=O)C(=O)N[C@H](C(=O)N[C@@H](CC(=O)NCCOCCOCC(=O)N[C@@H](CC(=O)O)C(=O)NCCOCCOCC(=O)NCCCCCCCCCCC(=O)O)C(=O)O)CSCC(=O)N[C@@H](Cc2ccccc2)C(=O)N[C@@H](Cc2c[nH]c3ccccc23)C(=O)N[C@@H](CC(=O)O)C1=O` [compound 2066] ({CH2CO}-FWD[NHexGly]YLDR[NMeS][Ahp(2)]P[Tle]NC[βAsp][AEEA]D[AEEA][Aun]-OH; thioether N-14) as the compound, how does the pIC50 [1] read?
**A.** 7.45

**Q.** `CCCCCCN1CC(=O)N[C@@H](Cc2ccc(O)cc2)C(=O)N[C@@H](CC(C)C)C(=O)N[C@@H](CC(N)=O)C(=O)N[C@@H](CCCNC(=N)N)C(=O)N(C)[C@@H](CO)C(=O)N[C@@H](CCCCC)C(=O)N2CCC[C@H]2C(=O)N[C@@H](C(C)(C)C)C(=O)N[C@@H](CO)C(=O)N[C@H](C(=O)N[C@@H](CC(=O)NCCOCCOCC(=O)N[C@@H](CC(=O)O)C(=O)NCCOCCOCC(=O)NCCCCCCCCCCC(=O)O)C(=O)O)CSCC(=O)N[C@@H](Cc2ccccc2)C(=O)N[C@@H](Cc2ccc(O)cc2)C(=O)N[C@@H](CC(=O)O)C1=O` [compound 2068] ({CH2CO}-FYD[NHexGly]YLNR[NMeS][Ahp(2)]P[Tle]SC[βAsp][AEEA]D[AEEA][Aun]-OH; thioether N-14) was tested. Which pIC50 (read-out: HC CBA miPrISTA IC50) did it give?
**A.** 7.52

**Q.** `CCCCCCN1CC(=O)N[C@@H](Cc2ccc(O)cc2)C(=O)N[C@@H](CC(C)C)C(=O)N[C@@H](CC(N)=O)C(=O)N[C@@H](CCCNC(=N)N)C(=O)N(C)[C@@H](CO)C(=O)N[C@@H](CCCCC)C(=O)N2CCC[C@H]2C(=O)N[C@@H](C(C)(C)C)C(=O)N[C@@H](CC(=O)O)C(=O)N[C@H](C(=O)N[C@@H](CC(=O)NCCOCCOCC(=O)N[C@@H](CC(=O)O)C(=O)NCCOCCOCC(=O)NCCCCCCCCCCC(=O)O)C(=O)O)CSCC(=O)N[C@@H](Cc2ccccc2)C(=O)N[C@@H](Cc2cccc(C)c2)C(=O)N[C@@H](CC(=O)O)C1=O` [compound 2069] ({CH2CO}-F[Phe(3-Me)]D[NHexGly]YLNR[NMeS][Ahp(2)]P[Tle]DC[βAsp][AEEA]D[AEEA][Aun]-OH; thioether N-14) was tested. Which pIC50 (read-out: HC CBA miPrISTA IC50) did it give?
**A.** 7.35

**Q.** How did the pIC50 (read-out: HC CBA miPrISTA IC50) turn out when `CCCCCCN1CC(=O)N[C@@H](Cc2ccc(O)cc2)C(=O)N[C@@H](CC(C)C)C(=O)N[C@@H](CC(N)=O)C(=O)N[C@@H](CCCNC(=N)N)C(=O)N(C)[C@@H](CO)C(=O)N[C@@H](CCCCC)C(=O)N2CCC[C@H]2C(=O)N[C@@H](C(C)(C)C)C(=O)N[C@@H](CC(=O)O)C(=O)N[C@H](C(=O)N[C@@H](CC(=O)NCCOCCOCC(=O)N[C@@H](CC(=O)O)C(=O)NCCOCCOCC(=O)NCCCCCCCCCCC(=O)O)C(=O)O)CSCC(=O)N[C@@H](Cc2ccc3ccccc3c2)C(=O)N[C@@H](Cc2ccc(O)cc2)C(=O)N[C@@H](CC(=O)O)C1=O` [compound 2070] ({CH2CO}-[2Nal]YD[NHexGly]YLNR[NMeS][Ahp(2)]P[Tle]DC[βAsp][AEEA]D[AEEA][Aun]-OH; thioether N-14) was run?
**A.** 7.38

**Q.** With `CCCCCCN1CC(=O)N[C@@H](Cc2ccc(O)cc2)C(=O)N[C@@H](CC(C)C)C(=O)N[C@@H](CC(N)=O)C(=O)N[C@@H](CCCNC(=N)N)C(=O)N(C)[C@@H](CO)C(=O)N[C@@H](CCCCC)C(=O)N2CCC[C@H]2C(=O)N[C@@H](C(C)(C)C)C(=O)N[C@@H](CC(=O)O)C(=O)N[C@H](C(=O)N[C@@H](CC(=O)NCCOCCOCC(=O)N[C@@H](CC(=O)O)C(=O)NCCOCCOCC(=O)NCCCCCCCCCCC(=O)O)C(=O)O)CSCC(=O)N[C@@H](Cc2cccc(C)c2)C(=O)N[C@@H](Cc2ccc(O)cc2)C(=O)N[C@@H](CC(=O)O)C1=O` [compound 2071] ({CH2CO}-[Phe(3-Me)]YD[NHexGly]YLNR[NMeS][Ahp(2)]P[Tle]DC[βAsp][AEEA]D[AEEA][Aun]-OH; thioether N-14) as the compound, how does the pIC50 (read-out: HC CBA miPrISTA IC50) read?
**A.** 7.56

**Q.** How did the pIC50 (read-out: HC CBA miPrISTA IC50) turn out when `CCCCCCN1CC(=O)N[C@@H](Cc2ccc(O)cc2)C(=O)N[C@@H](CC(C)C)C(=O)N[C@@H](CC(N)=O)C(=O)N[C@@H](CCCN)C(=O)N(C)[C@@H](CCCC)C(=O)N[C@@H](CCCCC)C(=O)N2CCC[C@H]2C(=O)N[C@@H](C(C)(C)C)C(=O)N[C@@H](C(C)C)C(=O)N[C@H](C(=O)N[C@@H](CC(=O)NCCOCCOCC(=O)N[C@@H](CC(=O)O)C(=O)NCCOCCOCC(=O)NCCCCCCCCCCC(=O)O)C(=O)O)CSCC(=O)N[C@@H](Cc2ccccc2)C(=O)N[C@@H](Cc2cccc(C)c2)C(=O)N[C@@H](CC(=O)O)C1=O` [compound 2072] ({CH2CO}-F[Phe(3-Me)]D[NHexGly]YLN[Orn][NMeNle][Ahp(2)]P[Tle]VC[βAsp][AEEA]D[AEEA][Aun]-OH; thioether N-14) was run?
**A.** 7.68

**Q.** With `CCCCCCN1CC(=O)N[C@@H](Cc2ccc(O)cc2)C(=O)N[C@@H](CC(C)C)C(=O)N[C@@H](CC(N)=O)C(=O)N[C@@H](CCCNC(=N)N)C(=O)N(C)[C@@H](CCCC)C(=O)N[C@@H](CCCCC)C(=O)N2CCC[C@H]2C(=O)N[C@@H](C(C)(C)C)C(=O)N[C@@H](C(C)C)C(=O)N[C@H](C(=O)N[C@@H](CC(=O)NCCOCCOCC(=O)N[C@@H](CC(=O)O)C(=O)NCCOCCOCC(=O)NCCCCCCCCCCC(=O)O)C(=O)O)CSCC(=O)N[C@@H](Cc2ccccc2)C(=O)N[C@@H](Cc2cccc(C)c2)C(=O)N[C@@H](CC(=O)O)C1=O` [compound 2073] ({CH2CO}-F[Phe(3-Me)]D[NHexGly]YLNR[NMeNle][Ahp(2)]P[Tle]VC[βAsp][AEEA]D[AEEA][Aun]-OH; thioether N-14) as the compound, how does the pIC50 (read-out: HC CBA miPrISTA IC50) read?
**A.** 7.48

**Q.** With `CCCCCCN1CC(=O)N[C@@H](Cc2ccc(O)cc2)C(=O)N[C@@H](CC(C)C)C(=O)N[C@@H](CC(N)=O)C(=O)N[C@@H](CCCN)C(=O)N(C)[C@@H](CCCC)C(=O)N[C@@H](CCCCC)C(=O)N2CCC[C@H]2C(=O)N[C@@H](C(C)(C)C)C(=O)N[C@@H](CC(=O)O)C(=O)N[C@H](C(=O)N[C@@H](CC(=O)NCCOCCOCC(=O)N[C@@H](CC(=O)O)C(=O)NCCOCCOCC(=O)NCCCCCCCCCCC(=O)O)C(=O)O)CSCC(=O)N[C@@H](Cc2ccccc2)C(=O)N[C@@H](Cc2cccc(C)c2)C(=O)N[C@@H](CC(=O)O)C1=O` [compound 2074] ({CH2CO}-F[Phe(3-Me)]D[NHexGly]YLN[Orn][NMeNle][Ahp(2)]P[Tle]DC[βAsp][AEEA]D[AEEA][Aun]-OH; thioether N-14) as the compound, how does the pIC50 (read-out: HC CBA miPrISTA IC50) read?
**A.** 7.40
